Experimental data taken from US20170112858A1, “Extended Release Aspirin” (New Haven Pharmaceuticals, Inc., priority 2015, published 2017).

Tests used:
Format in all cases: in vivo, human
endothelial function = assay: Reactive hyperemia index (ENDOPAT pulsatile arterial tonometry)
Description: Endothelial function was assessed using the ENDOPAT system ([…] Medical, Israel), a pulsatile arterial tonometry-based diagnostic device, at Visit 2, Visit 3, Visit 5, and Visit 6 predose. The reactive hyperemia index (“RHI”), a measure of endothelial function, and the augmentation index (“AI”), a measure of arterial stiffness, were determined. Endothelial dysfunction is defined as RHI <1.67. Normal arterial stiffness is defined as an AI -30% to -10%, increased arterial stiffness as an AI >-10% to 10%, and abnormal arterial stiffness as an AI >10%. The RHI measures vessel pliability which is a surrogate for nitric oxide production. The production of nitric oxide inhibits platelet aggregation. Thus, determining nitric oxide production following Durlaza® dosing is important to understanding its affect on platelet inhibition.

[1] = test system: 2, 3-dinor-6-keto-PGF1α (prostacyclin); assay: Excretion of prostacyclin metabolite, urine GC/MS (Example 3)
Description: (§1) Subjects of Group 1 were randomly administered a placebo, 81 mg IR ASA and 162.5 mg IR ASA. Subjects of Group 2 were randomly administered a placebo, 81 mg ER ASA and 162.5 mg ER ASA (Durlaza®). Each subject was prohibited from taking any aspirin for two weeks prior to being administered the randomly chosen drug daily for 1 week followed by a urine collection 24 hours after dosing. This protocol was repeated two additional times. For each urine collection TxB2 and 2, 3-dinor-6-keto-PGF1α (“prostacyclin”) levels were measured using gas chromatography-mass spectrometry (“GC/MS”). Statistical analysis was done using Wilcoxon rank sum test for continuous variables and the Pearson test for categorical variables.

[2] = Single dose ASA pharmacokinetics in healthy adults (serial blood samples)
Description: (§2) Healthy adults were randomized to receive single doses of extended release ASA (“ER ASA”) at a dosage of 20 mg, 40 mg, 81 mg, 162.5 mg ER ASA (Durlaza®; New Haven Pharmaceuticals, Inc., North Haven, Conn.), or 325 mg, or immediate release ASA (“IR ASA”; aspirin powder USP; Letco Medical, Decatur, Ala.) at a dosage of 5 mg, 10 mg, 20 mg, 40 mg or 81 mg. […] For pharmacodynamic assessments, serum 11-dehydro-thromboxane (“TxB2”, a stable metabolite of thromboxane A2) levels were assessed using a validated enzyme immunoassay kit in serial blood samples collected 1 hour before dosing and at 0.5, 1, 2, 4, 8, 16, and 24 hours after drug administration.

TxB2 = assay: Excretion of thromboxane metabolite, urine GC/MS (Example 3)
Description: as §1

[3] = test system: High Sensitive C-Reactive Protein (hs-CRP); assay: High Sensitive C-Reactive Protein test (Immulite 2000 Xpi)
Description: Subjects were also measured for high sensitive C-reactive protein (“hs-CRP”) levels at Visit 1, Visit 2, Visit 3 pre-dose, Visit 3 at 24 hours, Visit 6 pre-dose and Visit 6 at 24 hours.
High Sensitive C-Reactive Protein (“hs-CRP”) was measured using a Seimens Immulite 2000® Xpi analyzer (Immulite 2000 is a registered trademark of Siemens Healthcare Diagnostic, Inc.), prior to 162.5 mg ER ASA (Durlaza®) dosing at Visit 2 pre-dose, at Visit 3 pre-dose and Visit 3 at 24-hr post-dose for the 162.5 mg ER ASA (Durlaza®) dose, and at Visit 6 pre-dose and Visit 6 at 24-hr post-dose for the 325 mg ER ASA dose.

serum TxB2 production = assay: Single dose inhibition of serum TxB2 production in healthy adults (enzyme immunoassay); details: highest doses: ER ASA 81, 162.5, 325 mg; IR ASA 40, 81 mg
Description: as §2

platelet aggregation = assay: Light transmittance aggregometry (LTA), AA-, collagen-, ADP-induced, in type II diabetes subjects with vascular disease or CVD risk factors; details: trough
Description: High platelet reactivity has previously been implicated in incomplete inhibition during therapy with immediate release low-dose aspirin in patients with type II diabetes. The main study consisted of a run-in phase where subjects were administered 81 mg, everyday (“QD”), of immediate release acetylsalicylic acid (“IR ASA”) for 7-28 days. […] For this study the trough level data are from the following timepoints: (1) for 81 mg—the data at Visit 2; […]

[4] = Visit 2, 81 mg IR QD (vs. Visit 3 pre dose)
[5] = Visit 2, 81 mg IR QD (vs. Visit 6 pre dose)

- time required to reach the maximum concentration of ASA ([2]; all doses, single dose): 1 to 2 h
- AUClast of ASA ([2]; single dose 40 mg): 384 ng·h/mL
- AUClast of ASA ([2]; single dose 81 mg): 865 ng·h/mL
Compound: CC(=O)Oc1ccccc1C(=O)O [IR ASA, acetylsalicylic acid]
- subjects with RHI < 1.67 (n, %) (endothelial function; HPT Group, Visit 5, 81 mg IR ASA QD): 4 (44) n, %
- subjects with RHI < 1.67 (n, %) (endothelial function; Visit 2, 81 mg IR ASA QD): 11 (27.5) n, %
- Bradykinin-stimulated prostacyclin levels, over placebo ([1]; 81 mg daily): significantly reduced
- Bradykinin-stimulated prostacyclin levels, over placebo ([1]; 162.5 mg daily): significantly reduced
- Bradykinin-stimulated TxB2 levels 4 hours post-dosing, over placebo (TxB2; 81 mg daily): significantly reduced
- Basal urinary TxB2 levels 24 hours post-dosing, over placebo (TxB2; 81 mg daily for 1 week): significantly reduced
- Bradykinin-stimulated TxB2 levels 4 hours post-dosing, over placebo (TxB2; 162.5 mg daily): significantly reduced
- Basal urinary TxB2 levels 24 hours post-dosing, over placebo (TxB2; 162.5 mg daily for 1 week): significantly reduced
- dose dependence of the effect on TxB2 synthesis (TxB2; 81 vs 162.5 mg): not seen
- subjects with hs-CRP >3 mg/L (n, %) ([3]; V2 pre-dose, 81 mg IR ASA): 23 (57) n, %
- patients meeting the criteria for elevated CRP ([3]; during 81 mg IR ASA therapy, total study population): 47%
- single dose inhibition of TxB2 production (serum TxB2 production): maintained during a 24-hour period
- LTA (%) 2 mM AA (Final), first line so headed (platelet aggregation; [4]): 5 ± 12%
- LTA (%) 2 mM AA (Final), second line so headed (platelet aggregation; [4]): 6 ± 13%
- LTA (%) 2 mM AA (Final), first line so headed (platelet aggregation; [5]): 3 ± 2%
- LTA (%) 2 mM AA (Final), second line so headed (platelet aggregation; [5]): 3 ± 2%
